Source: patent US20230277534A1 (Plexxikon Inc., priority 2011, published 2023)

How the values were obtained:
B-Raf V600E = B-Raf V600E (Homo sapiens (Human), UniProt P15056, V600E); assay: B-Raf V600E kinase biochemical activity assay (AlphaScreen, biotin-MEK1 substrate); conditions: 100 μM ATP
In short: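 B-Raf V600E (0.1 ng) phosphorylated 100 nM biotin-MEK1 with 100 μM ATP (final) in HEPES pH 7.0 with Mg2+/Mn2+ for 45 min at room temperature. Compounds were tested over an 8-point serial dilution. Phospho-MEK1/2 was detected by AlphaScreen after 3 h with beads, and IC50 came from signal versus concentration.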

[1] = tested on: COLO205 colon adenocarcinoma cells (B-Raf V600E mutation); assay: COLO205 cell growth inhibition (ATPlite); type: cell-based; conditions: Homo sapiens, COLO 205, 72 h, 3 days
In short: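 Cells treated for 3 days at 37 °C, 5% CO2 with an 8-point 1:3 dilution series, top final concentration 10 μM, DMSO control. ATPlite luminescence used as a measure of cell number; IC50 from reading versus concentration.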

Sequence of B-Raf V600E (P15056 whole entry V600E): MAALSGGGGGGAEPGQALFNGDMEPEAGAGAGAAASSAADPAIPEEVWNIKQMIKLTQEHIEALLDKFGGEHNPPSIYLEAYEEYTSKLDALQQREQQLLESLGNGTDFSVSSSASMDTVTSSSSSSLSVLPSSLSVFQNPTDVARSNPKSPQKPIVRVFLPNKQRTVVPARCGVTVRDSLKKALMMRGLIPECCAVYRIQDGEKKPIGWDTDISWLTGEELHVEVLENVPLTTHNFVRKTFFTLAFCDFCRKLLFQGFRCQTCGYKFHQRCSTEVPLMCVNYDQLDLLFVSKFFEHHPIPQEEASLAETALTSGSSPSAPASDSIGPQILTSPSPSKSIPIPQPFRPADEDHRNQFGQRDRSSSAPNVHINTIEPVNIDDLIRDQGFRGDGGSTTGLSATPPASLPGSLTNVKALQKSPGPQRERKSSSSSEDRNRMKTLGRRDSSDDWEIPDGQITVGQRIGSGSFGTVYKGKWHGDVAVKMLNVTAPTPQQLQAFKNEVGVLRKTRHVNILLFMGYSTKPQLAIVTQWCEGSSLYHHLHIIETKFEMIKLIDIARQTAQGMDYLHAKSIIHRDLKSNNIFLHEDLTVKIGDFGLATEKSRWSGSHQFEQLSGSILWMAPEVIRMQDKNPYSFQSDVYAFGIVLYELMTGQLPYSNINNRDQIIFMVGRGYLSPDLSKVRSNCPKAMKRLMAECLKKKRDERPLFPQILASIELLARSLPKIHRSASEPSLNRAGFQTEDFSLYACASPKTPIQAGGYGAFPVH

| IC50 (B-Raf V600E) | IC50 [1] | SMILES |
| --- | --- | --- |
| < 0.1 µM | < 1 µM | CN(C)S(=O)(=O)Nc1cccc(C(=O)c2c[nH]c3ncc(-c4cnc(N5CCCC5)nc4)cc23)c1F [Compound P-0107, 3-[3-(dimethylsulfamoylamino)-2-fluoro-benzoyl]-5-(2-pyrrolidin-1-ylpyrimidin-5-yl)-1H-pyrrolo[2,3-b]pyridine] |
| < 0.1 µM | < 1 µM | CCN(C)S(=O)(=O)Nc1ccc(F)c(C(=O)c2c[nH]c3ncc(-c4ccc(C(C)(C)O)nc4)cc23)c1F [Compound P-0307, 3-[3-[[ethyl(methyl)sulfamoyl]amino]-2,6-difluoro-benzoyl]-5-[6-(1-hydroxy-1-methyl-ethyl)-3-pyridyl]-1H-pyrrolo[2,3-b]pyridine] |
| < 0.1 µM | < 1 µM | CCC(C)S(=O)(=O)Nc1cccc(C(=O)c2c[nH]c3ncc(-c4cnc(NC5CC5)nc4)cc23)c1F (stereo not drawn) [Compound P-0226, N-[3-[5-[2-(cyclopropylamino)pyrimidin-5-yl]-1H-pyrrolo[2,3-b]pyridine-3-carbonyl]-2-fluoro-phenyl]butane-2-sulfonamide] |
| < 0.1 µM | < 1 µM | O=C(c1c(F)ccc(NS(=O)(=O)N2CCC(F)C2)c1F)c1c[nH]c2ncc(-c3cnc(C4CC4)nc3)cc12 (stereo not drawn) [Compound P-0339, N-[3-[5-(2-cyclopropylpyrimidin-5-yl)-1H-pyrrolo[2,3-b]pyridine-3-carbonyl]-2,4-difluoro-phenyl]-3-fluoro-pyrrolidine-1-sulfonamide] |
| < 0.1 µM | < 1 µM | CCN(C)S(=O)(=O)Nc1cccc(C(=O)c2c[nH]c3ncc(-c4ccc(N(C)C)nc4)cc23)c1F [Compound P-0076, 5-[6-(dimethylamino)-3-pyridyl]-3-[3-[[ethyl(methyl)sulfamoyl]amino]-2-fluoro-benzoyl]-1H-pyrrolo[2,3-b]pyridine] |
| < 0.1 µM | < 1 µM | O=C(c1c(F)ccc(NS(=O)(=O)N2CCCC2)c1F)c1c[nH]c2ncc(F)c(NCC3CC3)c12 [Compound P-0016, N-[3-[4-(cyclopropylmethylamino)-5-fluoro-1H-pyrrolo[2,3-b]pyridine-3-carbonyl]-2,4-difluoro-phenyl]pyrrolidine-1-sulfonamide] |
| < 0.1 µM | < 1 µM | O=C(c1cccc(NS(=O)(=O)N2CCCC2)c1F)c1c[nH]c2ncc(-c3ccncc3)cc12 [Compound P-0281, N-[2-fluoro-3-[5-(4-pyridyl)-1H-pyrrolo[2,3-b]pyridine-3-carbonyl]phenyl]pyrrolidine-1-sulfonamide] |
| < 0.1 µM | < 1 µM | CN(C1CC1)S(=O)(=O)Nc1cccc(C(=O)c2c[nH]c3ncc(-c4cnc(C5CC5)nc4)cc23)c1F [Compound P-0249, 3-[3-[[cyclopropyl(methyl)sulfamoyl]amino]-2-fluoro-benzoyl]-5-(2-cyclopropylpyrimidin-5-yl)-1H-pyrrolo[2,3-b]pyridine] |
| < 0.1 µM | < 1 µM | CN(C)S(=O)(=O)Nc1cccc(C(=O)c2c[nH]c3ncc(-c4cncc(C#N)c4)cc23)c1F [Compound P-0098, 5-(5-cyano-3-pyridyl)-3-[3-(dimethylsulfamoylamino)-2-fluoro-benzoyl]-1H-pyrrolo[2,3-b]pyridine] |
| > 0.1 µM | > 1 µM | CC(C)NS(=O)(=O)Nc1cccc(C(=O)c2c[nH]c3ncc(I)cc23)c1F [Compound P-0071, [2-fluoro-3-(isopropylsulfamoylamino)phenyl]-(5-iodo-1H-pyrrolo[2,3-b]pyridin-3-yl)methanone] |
| < 0.1 µM | < 1 µM | CCN(C)S(=O)(=O)Nc1cccc(C(=O)c2c[nH]c3ncc(-c4ccc(C(C)(C)O)cc4)cc23)c1F [Compound P-0104, 3-[3-[[ethyl(methyl)sulfamoyl]amino]-2-fluoro-benzoyl]-5-[4-(1-hydroxy-1-methyl-ethyl)phenyl]-1H-pyrrolo[2,3-b]pyridine] |
| < 0.1 µM | < 1 µM | CCC(C)S(=O)(=O)Nc1cccc(C(=O)c2c[nH]c3ncc(-c4cnc(C(C)C)nc4)cc23)c1F (stereo not drawn) [Compound P-0229, N-[2-fluoro-3-[5-(2-isopropylpyrimidin-5-yl)-1H-pyrrolo[2,3-b]pyridine-3-carbonyl]phenyl]butane-2-sulfonamide] |
| > 0.1 µM | > 1 µM | CCCNS(=O)(=O)Nc1cccc(C(=O)c2c[nH]c3ncc(I)cc23)c1F [Compound P-0117, [2-fluoro-3-(propylsulfamoylamino)phenyl]-(5-iodo-1H-pyrrolo[2,3-b]pyridin-3-yl)methanone] |
| < 0.1 µM | < 1 µM | O=C(c1c(F)ccc(NS(=O)(=O)N2CCCC2)c1F)c1c[nH]c2ncc(-c3cnc(N4CCNCC4)nc3)cc12 [Compound P-0261, N-[2,4-difluoro-3-[5-(2-piperazin-1-ylpyrimidin-5-yl)-1H-pyrrolo[2,3-b]pyridine-3-carbonyl]phenyl]pyrrolidine-1-sulfonamide] |
| < 0.1 µM | > 1 µM | CCC(C)S(=O)(=O)Nc1ccc(F)c(C(=O)c2c[nH]c3ncc(-c4ccc(Cl)cc4)cc23)c1F (stereo not drawn) [Compound P-0337, N-[3-[5-(4-chlorophenyl)-1H-pyrrolo[2,3-b]pyridine-3-carbonyl]-2,4-difluoro-phenyl]butane-2-sulfonamide] |
| < 0.1 µM | > 1 µM | CCN(C)S(=O)(=O)Nc1ccc(F)c(C(=O)c2c[nH]c3ncc(-c4cccc(C5(C#N)CC5)c4)cc23)c1F [Compound P-0276, 5-[3-(1-cyanocyclopropyl)phenyl]-3-[3-[[ethyl(methyl)sulfamoyl]amino]-2,6-difluoro-benzoyl]-1H-pyrrolo[2,3-b]pyridine] |
| < 0.1 µM | < 1 µM | O=C(c1c(F)ccc(NS(=O)(=O)N2CCCC2)c1F)c1c[nH]c2ncc(-c3cc(N4CCOCC4)ncn3)cc12 [Compound P-0318, N-[2,4-difluoro-3-[5-(6-morpholinopyrimidin-4-yl)-1H-pyrrolo[2,3-b]pyridine-3-carbonyl]phenyl]pyrrolidine-1-sulfonamide] |
| < 0.1 µM | > 1 µM | CCN(C)S(=O)(=O)Nc1ccc(F)c(C(=O)c2c[nH]c3ncc(-c4ccc(N5CCCC5)cc4)cc23)c1F [Compound P-0303, 3-[3-[[ethyl(methyl)sulfamoyl]amino]-2,6-difluoro-benzoyl]-5-(4-pyrrolidin-1-ylphenyl)-1H-pyrrolo[2,3-b]pyridine] |
| < 0.1 µM | < 1 µM | CN(C)S(=O)(=O)Nc1ccc(F)c(C(=O)c2c[nH]c3ncc(-c4cnc(C5CC5)nc4)cc23)c1F [Compound P-0238, 5-(2-cyclopropylpyrimidin-5-yl)-3-[3-(dimethylsulfamoylamino)-2,6-difluoro-benzoyl]-1H-pyrrolo[2,3-b]pyridine] |
| < 0.1 µM | > 1 µM | COc1ccnc(-c2cnc3[nH]cc(C(=O)c4cccc(NS(=O)(=O)N5CCCC5)c4F)c3c2)n1 [Compound P-0325, N-[2-fluoro-3-[5-(4-methoxypyrimidin-2-yl)-1H-pyrrolo[2,3-b]pyridine-3-carbonyl]phenyl]pyrrolidine-1-sulfonamide] |
| < 0.1 µM | < 1 µM | CCN(CC)c1ccc(-c2cnc3[nH]cc(C(=O)c4c(F)ccc(NS(=O)(=O)N(C)CC)c4F)c3c2)cc1 [Compound P-0308, 5-[4-(diethylamino)phenyl]-3-[3-[[ethyl(methyl)sulfamoyl]amino]-2,6-difluoro-benzoyl]-1H-pyrrolo[2,3-b]pyridine] |
| < 0.1 µM | > 1 µM | CCCNS(=O)(=O)Nc1cccc(C(=O)c2c[nH]c3ncc(-c4cnn(C)c4)cc23)c1F [Compound P-0242, [2-fluoro-3-(propylsulfamoylamino)phenyl]-[5-(1-methylpyrazol-4-yl)-1H-pyrrolo[2,3-b]pyridin-3-yl]methanone] |
| < 0.1 µM | < 1 µM | CN(C)S(=O)(=O)Nc1cccc(C(=O)c2c[nH]c3ncc(-c4ccc(C5CC5)nc4)cc23)c1F [Compound P-0113, 5-(6-cyclopropyl-3-pyridyl)-3-[3-(dimethylsulfamoylamino)-2-fluoro-benzoyl]-1H-pyrrolo[2,3-b]pyridine] |
| < 0.1 µM | > 1 µM | CCCNS(=O)(=O)Nc1cccc(C(=O)c2c[nH]c3ncc(-c4cnc(C5CC5)nc4)cc23)c1F [Compound P-0251, [5-(2-cyclopropylpyrimidin-5-yl)-1H-pyrrolo[2,3-b]pyridin-3-yl]-[2-fluoro-3-(propylsulfamoylamino)phenyl]methanone] |
| < 0.1 µM | < 1 µM | CCN(C)S(=O)(=O)Nc1ccc(F)c(C(=O)c2c[nH]c3ncc(-c4ccc5nc(N)ncc5c4)cc23)c1F [Compound P-0311, 2-amino-6-[3-[3-[[ethyl(methyl)sulfamoyl]amino]-2,6-difluoro-benzoyl]-1H-pyrrolo[2,3-b]pyridin-5-yl]quinazoline] |
| < 0.1 µM | < 1 µM | O=C(c1c(F)ccc(NS(=O)(=O)N2CCCC2)c1F)c1c[nH]c2ncc(-c3ccnc(N4CCOCC4)n3)cc12 [Compound P-0282, N-[2,4-difluoro-3-[5-(2-morpholinopyrimidin-4-yl)-1H-pyrrolo[2,3-b]pyridine-3-carbonyl]phenyl]pyrrolidine-1-sulfonamide] |
| < 0.1 µM | < 1 µM | CCN(C)S(=O)(=O)Nc1cccc(C(=O)c2c[nH]c3ncc(-c4cnc(NC5CC5)nc4)cc23)c1F [Compound P-0077, 5-[2-(cyclopropylamino)pyrimidin-5-yl]-3-[3-[[ethyl(methyl)sulfamoyl]amino]-2-fluoro-benzoyl]-1H-pyrrolo[2,3-b]pyridine] |
